# From ChEMBL document CHEMBL5465560, “Selectivity Literature for EUbOPEN Chemogenomic Library” (2024)
# What was measured:
# [1] = molecular target: AP2-associated protein kinase 1 (Homo sapiens, UniProt Q2M2I8); experiment: Selectivity interaction (KinomeScan (DiscoverX)) EUB0000595a AAK1; conditions: at 10 µM
# [2] = molecular target: Ribosomal protein S6 kinase alpha-4 (Homo sapiens) (UniProt O75676); experiment: Selectivity interaction (KinomeScan (DiscoverX)) EUB0000045b RPS6KA4; conditions: at 1 µM
# [3] = molecular target: Insulin receptor (Homo sapiens, UniProt P06213); experiment: Selectivity interaction (KinomeScan (DiscoverX)) EUB0000695a INSR; conditions: at 100 nM
# [4] = molecular target: RAC-gamma serine/threonine-protein kinase (Homo sapiens, UniProt Q9Y243); experiment: Selectivity interaction (Rxn Biology Kinase assay) EUB0001632a AKT3; conditions: at 10 µM
# [5] = tested on: Epidermal growth factor receptor (Homo sapiens), P00533 [L858R,T790M]; experiment: (§1) Selectivity interaction (Kinase panel (Z-LYTE Assay)) EUB0001632a EGFR; conditions: at 10 µM
# [6] = molecular target: Epidermal growth factor receptor (Homo sapiens, UniProt P00533); experiment: as §1; conditions: at 10 µM
# [7] = tested on: Epidermal growth factor receptor (Homo sapiens), P00533 [T790M]; experiment: as §1; conditions: at 10 µM
# [8] = tested on: Epidermal growth factor receptor (Homo sapiens), P00533 [L861Q]; experiment: as §1; conditions: at 10 µM
# [9] = tested on: Epidermal growth factor receptor (Homo sapiens), P00533 [L858R]; experiment: as §1; conditions: at 10 µM
# [10] = molecular target: Leucine-rich repeat serine/threonine-protein kinase 2 (Homo sapiens, UniProt Q5S007); experiment: Selectivity interaction (Adapta Assay) EUB0001632a LRRK2; conditions: at 10 µM
# [11] = molecular target: T1, Serine/threonine-protein kinase D3 (Homo sapiens) (UniProt O94806); experiment: Selectivity interaction (KinomeScan (DiscoverX)) EUB0000666a PRKD3; conditions: at 10 µM
# T1 sequence (whole entry): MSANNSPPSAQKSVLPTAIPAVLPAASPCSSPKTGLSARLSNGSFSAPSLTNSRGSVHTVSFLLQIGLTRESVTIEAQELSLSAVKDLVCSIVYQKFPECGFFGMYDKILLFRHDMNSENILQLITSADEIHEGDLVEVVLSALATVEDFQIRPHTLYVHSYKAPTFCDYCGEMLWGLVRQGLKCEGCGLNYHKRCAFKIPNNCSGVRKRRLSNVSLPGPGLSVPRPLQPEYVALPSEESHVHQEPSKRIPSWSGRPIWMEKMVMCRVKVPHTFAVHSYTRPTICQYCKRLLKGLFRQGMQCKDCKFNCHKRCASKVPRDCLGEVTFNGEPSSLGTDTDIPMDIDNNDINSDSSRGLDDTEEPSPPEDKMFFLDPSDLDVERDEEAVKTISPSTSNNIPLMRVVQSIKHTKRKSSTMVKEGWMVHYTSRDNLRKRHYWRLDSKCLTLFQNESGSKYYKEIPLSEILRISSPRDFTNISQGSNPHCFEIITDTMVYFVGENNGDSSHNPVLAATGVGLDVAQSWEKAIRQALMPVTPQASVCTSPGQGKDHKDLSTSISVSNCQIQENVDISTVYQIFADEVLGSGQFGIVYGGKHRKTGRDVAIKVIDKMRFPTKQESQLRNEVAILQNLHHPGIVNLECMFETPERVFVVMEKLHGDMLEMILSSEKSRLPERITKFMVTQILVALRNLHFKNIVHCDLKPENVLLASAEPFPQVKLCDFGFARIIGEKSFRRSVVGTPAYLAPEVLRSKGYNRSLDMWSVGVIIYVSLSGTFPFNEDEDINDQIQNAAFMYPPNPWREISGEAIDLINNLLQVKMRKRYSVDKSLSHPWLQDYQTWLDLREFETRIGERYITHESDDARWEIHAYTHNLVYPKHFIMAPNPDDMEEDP
# [12] = molecular target: T2, Serine/threonine-protein kinase RIO1 (Homo sapiens) (UniProt Q9BRS2); experiment: Selectivity interaction (KinomeScan (DiscoverX)) EUB0000666a RIOK1; conditions: at 10 µM
# T2 sequence (whole entry): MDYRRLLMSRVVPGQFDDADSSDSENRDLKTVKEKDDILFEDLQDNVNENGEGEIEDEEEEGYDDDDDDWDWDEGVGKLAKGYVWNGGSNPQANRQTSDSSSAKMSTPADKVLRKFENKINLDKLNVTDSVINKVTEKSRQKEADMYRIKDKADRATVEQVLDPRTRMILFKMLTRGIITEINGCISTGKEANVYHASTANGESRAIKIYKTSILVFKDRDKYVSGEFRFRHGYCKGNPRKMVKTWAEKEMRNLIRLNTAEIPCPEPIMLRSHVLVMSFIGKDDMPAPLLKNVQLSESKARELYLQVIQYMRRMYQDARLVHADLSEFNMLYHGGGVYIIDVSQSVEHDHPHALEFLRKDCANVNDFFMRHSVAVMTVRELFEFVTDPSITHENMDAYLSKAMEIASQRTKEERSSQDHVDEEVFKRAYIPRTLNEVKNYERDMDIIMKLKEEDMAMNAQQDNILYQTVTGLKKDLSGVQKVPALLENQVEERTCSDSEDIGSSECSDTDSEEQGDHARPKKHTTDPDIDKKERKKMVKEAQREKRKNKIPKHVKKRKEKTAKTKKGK
# [13] = molecular target: Serine/threonine-protein kinase 32A (Homo sapiens) (UniProt Q8WU08); experiment: Selectivity interaction (KinomeScan (DiscoverX)) EUB0001049a STK32A; conditions: at 1 µM
# [14] = molecular target: Protein kinase C beta type (Homo sapiens, UniProt P05771); experiment: Selectivity interaction (ProQinase) EUB0000171b PRKCB
# [15] = molecular target: Tyrosine-protein kinase Fgr (Homo sapiens) (UniProt P09769); experiment: Selectivity interaction (KinomeScan (DiscoverX)) EUB0001619a FGR; conditions: at 1 µM
# [16] = molecular target: Mitogen-activated protein kinase kinase kinase 11 (Homo sapiens) (UniProt Q16584); experiment: Selectivity interaction (ActivX KiNativ screen (kinase selectivity in THP-1 cell lysates)) EUB0000639a MAP3K11; assay type: subcellular; conditions: lysate, at 0.01 µM
# [17] = molecular target: T3, 3-phosphoinositide-dependent protein kinase 1 (Homo sapiens) (UniProt O15530); conditions: at 10 µM
# T3 sequence (whole entry): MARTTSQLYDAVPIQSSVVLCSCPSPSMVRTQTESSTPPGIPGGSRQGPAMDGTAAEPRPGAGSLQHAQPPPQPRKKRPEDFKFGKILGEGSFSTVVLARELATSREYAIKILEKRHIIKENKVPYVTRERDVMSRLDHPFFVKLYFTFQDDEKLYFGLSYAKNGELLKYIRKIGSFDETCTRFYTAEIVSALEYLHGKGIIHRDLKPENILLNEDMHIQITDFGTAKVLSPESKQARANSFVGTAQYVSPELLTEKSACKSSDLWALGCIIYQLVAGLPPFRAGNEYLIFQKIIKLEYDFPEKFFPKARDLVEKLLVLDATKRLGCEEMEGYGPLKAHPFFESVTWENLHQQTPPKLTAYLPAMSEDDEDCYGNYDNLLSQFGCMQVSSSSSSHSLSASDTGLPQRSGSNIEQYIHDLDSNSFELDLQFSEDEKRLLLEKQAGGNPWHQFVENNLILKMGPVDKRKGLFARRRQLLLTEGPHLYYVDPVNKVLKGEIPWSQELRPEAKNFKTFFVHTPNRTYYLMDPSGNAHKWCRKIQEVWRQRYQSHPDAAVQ
# Chain of Protein kinase C beta type (P05771 2-671 limits assumed): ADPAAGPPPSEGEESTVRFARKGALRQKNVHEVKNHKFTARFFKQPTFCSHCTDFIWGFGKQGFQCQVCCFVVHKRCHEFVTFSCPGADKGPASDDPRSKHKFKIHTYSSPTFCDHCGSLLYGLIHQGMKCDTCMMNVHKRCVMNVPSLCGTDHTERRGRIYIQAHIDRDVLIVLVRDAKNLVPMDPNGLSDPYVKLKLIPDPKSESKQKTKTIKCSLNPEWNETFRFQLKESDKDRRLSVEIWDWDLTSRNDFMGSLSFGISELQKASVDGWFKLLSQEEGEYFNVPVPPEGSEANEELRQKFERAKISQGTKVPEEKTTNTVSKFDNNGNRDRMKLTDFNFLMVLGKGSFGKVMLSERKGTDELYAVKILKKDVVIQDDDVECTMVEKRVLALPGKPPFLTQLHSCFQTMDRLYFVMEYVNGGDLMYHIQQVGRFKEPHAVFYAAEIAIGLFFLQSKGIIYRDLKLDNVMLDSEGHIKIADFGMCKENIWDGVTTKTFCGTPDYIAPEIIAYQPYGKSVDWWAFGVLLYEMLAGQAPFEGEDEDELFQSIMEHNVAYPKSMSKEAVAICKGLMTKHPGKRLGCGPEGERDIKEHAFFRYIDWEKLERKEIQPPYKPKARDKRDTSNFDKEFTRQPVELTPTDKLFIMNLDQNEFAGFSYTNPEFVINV
# Chain of Epidermal growth factor receptor (P00533 whole entry): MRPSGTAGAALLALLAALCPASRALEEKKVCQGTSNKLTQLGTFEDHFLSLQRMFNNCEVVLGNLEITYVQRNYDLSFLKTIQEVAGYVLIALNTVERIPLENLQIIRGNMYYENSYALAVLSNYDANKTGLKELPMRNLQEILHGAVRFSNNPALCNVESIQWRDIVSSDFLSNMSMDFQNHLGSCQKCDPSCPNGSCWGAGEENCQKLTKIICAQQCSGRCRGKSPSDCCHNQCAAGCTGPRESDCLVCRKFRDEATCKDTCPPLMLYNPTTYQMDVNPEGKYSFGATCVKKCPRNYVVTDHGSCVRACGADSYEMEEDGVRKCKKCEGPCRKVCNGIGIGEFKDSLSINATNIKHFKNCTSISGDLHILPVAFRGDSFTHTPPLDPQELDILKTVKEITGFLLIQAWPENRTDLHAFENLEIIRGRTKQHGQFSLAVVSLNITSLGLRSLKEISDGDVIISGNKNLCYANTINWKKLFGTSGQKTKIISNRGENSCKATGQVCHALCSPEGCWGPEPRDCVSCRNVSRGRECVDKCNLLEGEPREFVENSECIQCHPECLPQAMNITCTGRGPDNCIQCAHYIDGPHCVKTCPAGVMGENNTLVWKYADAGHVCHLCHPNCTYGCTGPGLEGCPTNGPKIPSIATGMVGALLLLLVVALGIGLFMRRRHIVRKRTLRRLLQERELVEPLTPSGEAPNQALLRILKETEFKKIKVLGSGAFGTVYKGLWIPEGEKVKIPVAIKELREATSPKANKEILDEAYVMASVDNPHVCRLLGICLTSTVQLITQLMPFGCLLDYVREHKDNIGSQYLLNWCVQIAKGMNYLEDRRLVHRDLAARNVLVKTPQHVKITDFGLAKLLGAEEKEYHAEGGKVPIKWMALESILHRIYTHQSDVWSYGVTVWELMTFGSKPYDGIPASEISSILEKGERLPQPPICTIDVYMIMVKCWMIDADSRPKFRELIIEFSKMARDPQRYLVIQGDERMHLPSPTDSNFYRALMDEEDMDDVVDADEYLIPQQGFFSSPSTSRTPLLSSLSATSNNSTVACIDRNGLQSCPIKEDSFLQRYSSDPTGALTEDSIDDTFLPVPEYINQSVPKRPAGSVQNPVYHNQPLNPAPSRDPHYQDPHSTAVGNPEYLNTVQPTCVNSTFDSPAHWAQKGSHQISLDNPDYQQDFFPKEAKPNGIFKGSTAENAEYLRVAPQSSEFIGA
# Chain of AP2-associated protein kinase 1 (Q2M2I8 whole entry, looked up): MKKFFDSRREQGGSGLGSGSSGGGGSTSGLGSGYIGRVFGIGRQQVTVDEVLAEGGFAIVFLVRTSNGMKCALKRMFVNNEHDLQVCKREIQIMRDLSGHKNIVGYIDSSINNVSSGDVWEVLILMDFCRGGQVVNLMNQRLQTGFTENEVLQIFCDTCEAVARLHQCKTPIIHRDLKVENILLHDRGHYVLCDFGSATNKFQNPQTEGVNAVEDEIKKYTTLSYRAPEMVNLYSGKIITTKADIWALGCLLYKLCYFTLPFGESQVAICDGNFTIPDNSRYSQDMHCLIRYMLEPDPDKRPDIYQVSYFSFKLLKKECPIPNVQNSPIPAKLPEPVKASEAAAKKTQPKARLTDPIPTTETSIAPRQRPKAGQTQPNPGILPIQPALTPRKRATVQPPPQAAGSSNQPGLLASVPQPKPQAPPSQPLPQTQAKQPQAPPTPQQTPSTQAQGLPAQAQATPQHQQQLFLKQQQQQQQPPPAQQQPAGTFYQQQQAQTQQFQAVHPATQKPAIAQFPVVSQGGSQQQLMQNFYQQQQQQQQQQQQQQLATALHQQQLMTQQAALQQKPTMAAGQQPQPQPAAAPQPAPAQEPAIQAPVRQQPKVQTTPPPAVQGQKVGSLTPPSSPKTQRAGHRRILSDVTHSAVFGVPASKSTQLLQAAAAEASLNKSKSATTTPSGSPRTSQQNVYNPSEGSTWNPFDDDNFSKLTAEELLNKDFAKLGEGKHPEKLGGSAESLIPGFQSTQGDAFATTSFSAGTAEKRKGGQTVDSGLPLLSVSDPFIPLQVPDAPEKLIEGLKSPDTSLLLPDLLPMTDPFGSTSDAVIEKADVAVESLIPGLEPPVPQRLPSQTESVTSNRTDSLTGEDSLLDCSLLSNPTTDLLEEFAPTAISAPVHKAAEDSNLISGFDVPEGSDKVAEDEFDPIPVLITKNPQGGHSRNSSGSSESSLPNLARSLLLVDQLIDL
# Chain of Mitogen-activated protein kinase kinase kinase 11 (Homo sapiens) (Q16584 whole entry, looked up): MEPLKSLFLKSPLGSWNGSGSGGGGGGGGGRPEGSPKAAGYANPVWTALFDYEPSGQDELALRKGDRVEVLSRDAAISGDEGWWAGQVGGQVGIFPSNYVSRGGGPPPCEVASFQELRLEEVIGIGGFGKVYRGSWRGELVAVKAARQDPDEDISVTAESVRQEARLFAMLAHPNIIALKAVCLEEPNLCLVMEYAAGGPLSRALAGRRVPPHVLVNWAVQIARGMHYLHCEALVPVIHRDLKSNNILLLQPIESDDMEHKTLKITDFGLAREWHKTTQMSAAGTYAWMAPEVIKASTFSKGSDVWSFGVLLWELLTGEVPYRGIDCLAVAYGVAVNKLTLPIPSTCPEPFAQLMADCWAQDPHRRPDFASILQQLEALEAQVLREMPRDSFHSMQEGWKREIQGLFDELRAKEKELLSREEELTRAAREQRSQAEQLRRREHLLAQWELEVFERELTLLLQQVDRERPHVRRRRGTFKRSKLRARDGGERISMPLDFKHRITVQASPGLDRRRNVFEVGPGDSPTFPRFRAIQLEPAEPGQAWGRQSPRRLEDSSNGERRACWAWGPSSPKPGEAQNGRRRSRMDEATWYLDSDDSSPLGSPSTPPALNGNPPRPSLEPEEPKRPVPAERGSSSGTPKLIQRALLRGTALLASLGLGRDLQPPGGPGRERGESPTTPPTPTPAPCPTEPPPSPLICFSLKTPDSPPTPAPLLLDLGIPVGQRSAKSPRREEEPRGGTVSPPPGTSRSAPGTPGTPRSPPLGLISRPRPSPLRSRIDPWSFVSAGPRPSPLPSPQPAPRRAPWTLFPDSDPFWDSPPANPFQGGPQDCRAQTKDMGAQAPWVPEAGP
# Chain of Epidermal growth factor receptor (Homo sapiens), P00533 [L858R,T790M] (P00533 whole entry T790M/L858R, looked up): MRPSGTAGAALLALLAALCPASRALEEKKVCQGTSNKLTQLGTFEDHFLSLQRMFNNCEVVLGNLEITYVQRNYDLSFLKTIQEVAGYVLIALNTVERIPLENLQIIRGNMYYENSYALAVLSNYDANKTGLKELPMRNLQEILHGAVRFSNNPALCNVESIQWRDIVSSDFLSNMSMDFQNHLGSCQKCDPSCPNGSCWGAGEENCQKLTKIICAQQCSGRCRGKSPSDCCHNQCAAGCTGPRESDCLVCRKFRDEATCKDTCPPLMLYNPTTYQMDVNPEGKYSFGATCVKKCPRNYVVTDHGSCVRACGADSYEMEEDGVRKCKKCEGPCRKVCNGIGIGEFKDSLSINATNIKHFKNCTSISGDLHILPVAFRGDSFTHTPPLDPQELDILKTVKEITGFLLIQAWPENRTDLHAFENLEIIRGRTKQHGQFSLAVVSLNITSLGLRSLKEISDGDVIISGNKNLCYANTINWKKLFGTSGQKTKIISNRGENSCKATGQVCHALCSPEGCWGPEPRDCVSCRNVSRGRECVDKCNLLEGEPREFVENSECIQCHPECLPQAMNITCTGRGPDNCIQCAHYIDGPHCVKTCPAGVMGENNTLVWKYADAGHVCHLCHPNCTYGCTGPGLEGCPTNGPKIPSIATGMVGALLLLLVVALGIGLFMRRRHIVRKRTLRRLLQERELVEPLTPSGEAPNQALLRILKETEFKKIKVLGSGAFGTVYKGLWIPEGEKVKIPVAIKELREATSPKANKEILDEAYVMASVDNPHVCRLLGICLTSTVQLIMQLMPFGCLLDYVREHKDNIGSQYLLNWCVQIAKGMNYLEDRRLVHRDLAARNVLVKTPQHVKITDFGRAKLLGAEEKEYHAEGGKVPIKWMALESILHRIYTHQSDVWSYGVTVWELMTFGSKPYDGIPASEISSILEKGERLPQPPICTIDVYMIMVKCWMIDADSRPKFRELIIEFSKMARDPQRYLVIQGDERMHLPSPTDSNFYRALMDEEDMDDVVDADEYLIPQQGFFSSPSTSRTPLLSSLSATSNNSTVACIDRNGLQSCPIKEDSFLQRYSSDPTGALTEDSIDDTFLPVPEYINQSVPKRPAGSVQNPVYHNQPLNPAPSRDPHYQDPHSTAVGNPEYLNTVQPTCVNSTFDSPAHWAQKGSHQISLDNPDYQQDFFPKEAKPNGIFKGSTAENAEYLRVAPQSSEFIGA
structure (smiles),measurement,setting,value
COCC(=O)NC/C=C/c1ccc2ncnc(Nc3ccc(Oc4ccc(C)nc4)c(C)c3)c2c1 [CP-724714],% of control,[1],100%
C=CC(=O)Nc1cc(-n2c(=O)ccc3cnc4ccc(-c5ccc(NS(C)(=O)=O)cc5)cc4c32)ccc1C,% of control,[2],67%
Cc1cc(F)c(C(=O)Nc2cccc(-c3nncn3C(C)C)n2)cc1-n1cnc(C2CC2)c1,% of control,[3],100%
Cn1cc(-n2cnc3c(NCc4nc5cc(Cl)c(Cl)cc5[nH]4)nc(N4CCOCC4)nc32)cn1,% of inhibition,[4],6.75%
same,% of control,[5],5.81%
same,% of control,[6],3.08%
same,% of control,[7],1.29%
same,% of control,[8],9.07%
same,% of control,[9],3.58%
same,% of inhibition,[10],100%
O=C(NOC[C@H](O)CO)c1ccc(F)c(F)c1Nc1ccc(I)cc1F,% of control,[11],70%
same,% of control,[12],95%
COc1cc(Nc2nc(C)cc(-c3cnn4nc(OC)ccc34)n2)cc(C(F)(F)F)c1,% of control,[13],63%
C=CC(=O)Nc1cccc(C(=O)Nc2ccc(Nc3cc(-c4[nH]c(SC)nc4C)ccn3)cc2)c1,% of control,[14]; at 1 µM,111%
same,% of control,[14]; at 5 µM,106%
N#Cc1cccc(-c2c[nH]c3ncnc(N4CCOCC4)c23)c1,% of control,[15],100%
CC[C@@H]1[C@H](F)C(=O)N[C@@H]1COc1nccc2cc(C(N)=O)c(OC)cc12 [ZIMLOVISERTIB],% of inhibition,[16],4.9%
CCN(CC)CCCCNc1ncc2cc(-c3cc(OC)cc(OC)c3)c(NC(=O)NC(C)(C)C)nc2n1,% of control,[17],100%
